{
  "source": "the NIST ThermoML archive (doi:10.1021/je034102r)",
  "key": {"[1]": {"details": "for mass density: 101.33 kPa, Liquid, Pycnometric method"}, "[2]": {"assay": "Molar enthalpy of transition or fusion", "details": "Crystal"}},
  "note": "Numbers after ± are expanded uncertainties.",
  "data": [
    {"smiles": "CCCCn1cc[n+](C)c1.F[P-](F)(F)(F)(F)F", "note": "[1-butyl-3-methylimidazolium hexafluorophosphate]", "values": [
      {"measurement": "mass density", "setting": "[1]; 298.23 K", "result": "1365.95 ± 0.55", "unit": "kg/m3"},
      {"measurement": "mass density", "setting": "[1]; 302.89 K", "result": "1362.05 ± 0.56", "unit": "kg/m3"},
      {"measurement": "mass density", "setting": "[1]; 307.9 K", "result": "1357.94 ± 0.57", "unit": "kg/m3"},
      {"measurement": "mass density", "setting": "[1]; 312.67 K", "result": "1353.99 ± 0.58", "unit": "kg/m3"},
      {"measurement": "mass density", "setting": "[1]; 317.58 K", "result": "1349.92 ± 0.59", "unit": "kg/m3"},
      {"measurement": "mass density", "setting": "[1]; 322.33 K", "result": "1346.02 ± 0.61", "unit": "kg/m3"},
      {"measurement": "mass density", "setting": "[1]; 327.16 K", "result": "1342.02 ± 0.62", "unit": "kg/m3"},
      {"measurement": "mass density", "setting": "[1]; 344.23 K", "result": "1328.03 ± 0.65", "unit": "kg/m3"},
      {"measurement": "mass density", "setting": "[1]; 348.93 K", "result": "1324.35 ± 0.67", "unit": "kg/m3"},
      {"measurement": "mass density", "setting": "[1]; 353.47 K", "result": "1320.69 ± 0.68", "unit": "kg/m3"},
      {"measurement": "Triple point temperature", "setting": "[1]; Crystal", "result": "283.51 ± 0.12", "unit": "K"},
      {"measurement": "Glass transition temperature", "setting": "[1]; Glass, Adiabatic calorimetry", "result": "-82.5 ± 2", "unit": "°C"},
      {"measurement": "Molar enthalpy of transition or fusion", "setting": "[2]", "result": "4.685 ± 0.01", "unit": "kcal/mol"}
    ]}
  ]
}
